Data reported in patent US12098217B2, “Fusion peptides as antimicrobial agents” (CENTRE NATIONAL DE LA RECHERCHE SCIENTIFIQUE, priority 2019, dated 2024).
In brackets after ≈: the same amount, converted by molar mass. Square brackets hold non-standard residues; d marks the D form. Peptide text beside a SMILES is read from it. Cha = N[C@@H](CC1CCCCC1)C(=O)O

Experiments:
[1] = system: E. coli 70S ribosome (^Ec70S); test: ITC, peptide interaction with E. coli 70S ribosome; format: binding
[2] = system: E. coli D22 strain; test: microbe, parasite or virus in culture; format: cell-based; details: for antibacterial activity, in words: E. coli D22, microdilution broth assay
[3] = system: E. coli infected kenny^drawing 2831 flies; test: In vivo survival assay, D. melanogaster infection model; design: species or system Drosophila melanogaster; details: 18.4 nl of 1 mM peptide 1 and 24 h after infection; for fold increased survival of infected flies 96 h after injection: E. coli infected kenny flies, versus PBS
Description: FIG. 2 concerns the in vivo survival assay using Drosophila melanogaster infection model. Seven-day-old female kenny^C02831 flies were infected by septic injury with a thin tungsten needle previously dipped in an E. coli suspension diluted in PBS and kept at 29° C. 1 and 24 hours after infection, 18.4 nl of peptides (1 mM) diluted in PBS or PBS alone were injected into the flies body cavity. (A) Survival curves. (B) Survival rate after 96 hours. (C) Lethal time 50% (LT50). Data represent means±standard errors of at least 3 independent experiments, each containing three groups of 20 flies. One-Way ANOVA test: *P<0.05, **P<0.01, ***P<0.001. ns: non-significant (P28: Onc112; P30: Onc112-P7; P120: Onc112-P7Scr).
50 ml of E. coli ATCC23754 were grown at 29° C. in LB media up to exponential phase (OD600=0.6-0.8) and centrifuged at 5.000 g for 5 min. The pellet was then diluted in 1 ml of PBS. Immune-deficient kenny^C02831 (Bou Aoun, R., Hetru, C., Troxler, L., Doucet, D., Ferrandon, D., and Matt, N. (2011). Analysis of thioester-containing proteins during the innate immune response of Drosophila melanogaster. J Innate Immun 3, 52-64) flies were raised at 25° C. with 60% humidity on standard cornmeal-agar medium. Seven-day-old female flies were infected by septic injury with a thin tungsten needle previously dipped in an E. coli suspension diluted in PBS and kept at 29° C. 1 and 24 hours after infection, 18.4 nl of peptides (1 mM) diluted in PBS or PBS alone were injected into the fly body cavity (Nanoject II apparatus; Drummond Scientific). Because log-rank analysis can only compare two survival curves at a time in the same experiment, we decided to compute the median lethal time 50 (LT50) and the survival rate at 96 hours to perform One-way ANOVA statistical analysis.

[4] = ITC 30° C., Table 2B, ^Ec70S, Ni = no specific interaction
[5] = ITC 30° C., Table 2B, ^Ec70S, Ni = no specific interaction, FITC peptides (*) values not well defined
[6] = ITC 25° C., E. coli ribosome (70S)
[7] = ITC, 30° C., E. coli ribosome, FITC-Onc112 series

## CC(=O)N[C@@H](CCC(N)=O)C(=O)N[C@@H](CC1CCCCC1)C(=O)N[C@@H](CC(=O)O)C(=O)N[C@@H](CC(C)C)C(=O)N[C@@H](Cc1ccccc1)C(=O)O [Peptide P7, Ac-QChaDLF-OH, reference compound] (Ac-Q[Cha]DLF-OH)
[1]; ITC 30° C.
  interaction with ^Ec70S, in words: does not specifically bind
[1]; [4]
  Kd (nM): Ni
[1]; [5]
  ΔG (kcal/mole): Ni
  ΔH (kcal/mole): Ni
  −TΔS (kcal/mole): Ni
[2]; D22 strain
  MIC (μM): >357 µM
  MIC (μg/ml): >256 µg/mL
[2]
  antibacterial activity, in words: fails to induce any detectable antibacterial activity
[3]
  effect on survival of E. coli infected flies, in words: has no effect on fly survival

## CC[C@H](C)[C@H](NC(=O)[C@@H](CCCNC(=N)N)NC(=O)[C@H](CCCNC(=N)N)NC(=O)[C@@H]1CCCN1C(=O)[C@@H]1CCCN1C(=O)[C@H](CCCNC(=N)N)NC(=O)[C@@H]1CCCN1C(=O)[C@H](CCCNC(=N)N)NC(=O)[C@@H]1CCCN1C(=O)[C@H](CC(C)C)NC(=O)[C@H](Cc1ccc(O)cc1)NC(=O)[C@@H]1CCCN1C(=O)[C@@H]1CCCN1C(=O)[C@H](CCCCN)NC(=O)[C@H](CC(=O)O)NC(=O)[C@@H](N)C(C)C)C(=O)N[C@@H](Cc1ccc(O)cc1)C(=O)N[C@@H](CC(N)=O)C(=O)N[C@H](CCCNC(=N)N)C(N)=O [Peptide P28, reference compound] (H-VDKPPYLPRPRPPR[dR]IYN[dR]-NH2; N-terminus assumed)
[1]; [6]
  Kd: 241 nM
  ΔG (kcal/mol): −9.2 (±0.1) kcal/mol
  ΔH (kcal/mol): −16.2 (±0.3) kcal/mol
[1]; ITC 30° C.
  affinity for ^Ec70S relative to Py: fivefold lower
[1]; [4]
  Kd: 84 nM
[1]; [5]
  ΔG: -9.82 kcal/mol
  ΔH: -23.9 kcal/mol
  −TΔS: 14.0 kcal/mol
[1]; ITC 30° C., Table 2B, ^Ec70S, Ni = no specific interaction, listed as Onc112
  Kd: ~84 nM
[1]; [7]
  Kd: 241 nM
  ΔG (kcal/mol): −9.2 (±0.1) kcal/mol
  ΔH (kcal/mol): −16.2 (±0.3) kcal/mol
[3]
  fold increased survival of infected flies 96 h after injection: 2.5 fold

## CC[C@H](C)[C@H](NC(=O)[C@@H](CCCNC(=N)N)NC(=O)[C@H](CCCNC(=N)N)NC(=O)[C@@H]1CCCN1C(=O)[C@@H]1CCCN1C(=O)[C@H](CCCNC(=N)N)NC(=O)[C@@H]1CCCN1C(=O)[C@H](CCCNC(=N)N)NC(=O)[C@@H]1CCCN1C(=O)[C@H](CC(C)C)NC(=O)[C@H](Cc1ccc(O)cc1)NC(=O)[C@@H]1CCCN1C(=O)[C@@H]1CCCN1C(=O)[C@H](CCCCN)NC(=O)[C@H](CC(=O)O)NC(=O)[C@@H](N)C(C)C)C(=O)N[C@@H](Cc1ccc(O)cc1)C(=O)N[C@@H](CC(N)=O)C(=O)N[C@H](CCCNC(=N)N)C(=O)N[C@@H](CC(N)=O)C(=O)NCC(=O)N1CCC[C@H]1C(=O)N[C@@H](CCCNC(=N)N)C(=O)N[C@@H](CCC(N)=O)C(=O)N[C@@H](CC1CCCCC1)C(=O)N[C@@H](CC(=O)O)C(=O)N[C@@H](CC(C)C)C(=O)N[C@@H](Cc1ccccc1)C(=O)O [Peptide P30] (H-VDKPPYLPRPRPPR[dR]IYN[dR]NGPRQ[Cha]DLF-OH)
[1]; ITC 30° C.
  interaction with ^Ec70S, in words: efficiently interact
[1]; [4]
  Kd: 70.4 nM
[1]; [5]
  ΔG: -9.92 kcal/mol
  ΔH: -25.6 kcal/mol
  −TΔS: 15.7 kcal/mol
[1]; from Table 2, ^Ec70S versus ^EcSC
  affinity for the ribosome relative to affinity for SC: three times higher affinity
[2]; D22 strain
  MIC (μM): 0.15 to 0.29 µM
  MIC (μg/ml): 0.5 to 1 µg/mL
[2]
  antibacterial activity, in words: no increase in the activity
[3]
  effect on survival of E. coli infected flies, in words: two times higher protective effect than its parental peptide P28
  fold increased survival of infected flies 96 h after injection: 4.5 fold

## CC[C@H](C)[C@H](NC(=O)[C@@H](CCCNC(=N)N)NC(=O)[C@H](CCCNC(=N)N)NC(=O)[C@@H]1CCCN1C(=O)[C@@H]1CCCN1C(=O)[C@H](CCCNC(=N)N)NC(=O)[C@@H]1CCCN1C(=O)[C@H](CCCNC(=N)N)NC(=O)[C@@H]1CCCN1C(=O)[C@H](CC(C)C)NC(=O)[C@H](Cc1ccc(O)cc1)NC(=O)[C@@H]1CCCN1C(=O)[C@@H]1CCCN1C(=O)[C@H](CCCCN)NC(=O)[C@H](CC(=O)O)NC(=O)[C@@H](N)C(C)C)C(=O)N[C@@H](Cc1ccc(O)cc1)C(=O)N[C@@H](CC(N)=O)C(=O)N[C@H](CCCNC(=N)N)C(=O)N[C@@H](CC(N)=O)C(=O)NCC(=O)N1CCC[C@H]1C(=O)N[C@@H](CCCNC(=N)N)C(=O)N[C@@H](CC1CCCCC1)C(=O)N[C@@H](Cc1ccccc1)C(=O)N[C@@H](CCC(N)=O)C(=O)N[C@@H](CC(C)C)C(=O)N[C@@H](CC(=O)O)C(=O)O [Peptide P120] (H-VDKPPYLPRPRPPR[dR]IYN[dR]NGPR[Cha]FQLD-OH)
[1]; [4]
  Kd: 101 nM
[1]; [5]
  ΔG: -9.85 kcal/mol
  ΔH: -13 kcal/mol
  −TΔS: 3.12 kcal/mol
[2]; D22 strain
  MIC (μM): 0.29 to 0.58 µM
  MIC (μg/ml): 1 to 2 µg/mL
[3]
  effect on survival of E. coli infected flies, in words: does not statistically differ from that measured with P28

## CC[C@H](C)[C@H](NC(=O)[C@@H]1CCCN1C(=O)[C@H](CCCNC(=N)N)NC(=O)[C@@H]1CCCN1C(=O)[C@@H]1CCCN1C(=O)[C@@H](NC(=O)[C@@H]1CCCN1C(=O)[C@H](CCCNC(=N)N)NC(=O)[C@@H]1CCCN1C(=O)[C@H](CC(C)C)NC(=O)[C@H](Cc1ccc(O)cc1)NC(=O)[C@H](CO)NC(=O)CNC(=O)[C@H](CCCCN)NC(=O)[C@H](CC(=O)O)NC(=O)[C@@H](NC(=O)[C@H](CCCCN)NC(=O)c1ccc2c(c1)C(=O)OC21c2ccc(O)cc2Oc2cc(O)ccc21)C(C)C)[C@@H](C)O)C(=O)N[C@@H](Cc1ccc(O)cc1)C(=O)N[C@@H](CC(N)=O)C(=O)N[C@@H](CCCNC(=N)N)C(=O)N[C@@H](CC(N)=O)C(=O)NCC(=O)N1CCC[C@H]1C(=O)N[C@@H](CCCNC(=N)N)C(=O)N[C@@H](CCC(N)=O)C(=O)N[C@@H](CC1CCCCC1)C(=O)N[C@@H](CC(=O)O)C(=O)N[C@@H](CC(C)C)C(=O)N[C@@H](Cc1ccccc1)C(=O)O [Peptide P150]
[1]; ITC 30° C., Table 2B, ^Ec70S, FITC peptides (*), values not well defined, weak interaction
  Kd: > 10000 nM
[1]; [5]
  ΔG: -6.27 kcal/mol
  ΔH: -13 kcal/mol
  −TΔS: 6.7 kcal/mol
[2]
  factor by which MIC is lower than that of P122: 4 to 16
[2]; D22 strain
  MBC: 128 µg/mL (≈ 33.7 µM)
  MIC (μM): 16.9 to 33.8 µM
  MIC (μg/ml): 64 to 128 µg/mL
